Source: PMC9137037 (Frontiers in Oncology, 2022)
Where no end group is shown, it is not given here.

Tests used:
[1] = tested on: beagle dogs; assay: ELISA antibody titers in sera of immunized beagle dogs; type: in vivo, dog; settings: for antibody titers in sera (words): beagle dogs, 1.0, 1.5, 3.0 mg with nor-MDP and ISA 720, ELISA
Procedure: In brief, the beagle dogs were purchased from Covance Research Products (Cumberland, VA, USA) and were housed in the Ohio State University Veterinarian Facility Institutional Animal Care Facility. The dogs were housed at 19°C−24°C room temperature with approximately 70% humidity, and 12 h light and 12 h dark–light cycle. The dogs’ body weights were at least 7.5 kg when they received the first immunization. […] The dogs received a total of 4 doses, immunization was done at the rear thigh with two sites of injections, the bleed was collected as indicated time points to monitor the antibody titers, and the body weight of each dog was monitored closely (see Figures 3B, C for detail).
Enzyme-linked immunosorbent assay (ELISA) was performed per our lab standard procedure. Briefly, a 96-well plate was coated with 100 μl of MVF-PD-1(92-110) peptide as an antigen at 2 μg/ml in phosphate-buffered saline (PBS; Research Products International, Mt Prospect, IL, USA, CAS No. 7647-145) overnight at 4°C. Nonspecific binding sites were blocked for 1 h with 200 μl of PBS with 1% BSA (bovine serum albumin; Thermo Fisher Scientific, Waltham, […], USA, BP9703-100), and the plate was washed with a washing buffer (PBS diluted 0.05% Tween 1% horse serum). […] After washing, the antibody was detected using 50 μl of 0.15% H2O2 in 24 mM of citric acid and 5 mM of the sodium phosphate buffer (pH5.2) with 0.5 mg/ml 2, […] (3-ethylbenzthiazole- 6-sulfonic acid, ABTS; Sigma, St. Louis, MO, USA) as the chromophore. […] Absorbance was read at 415 nm using an ELISA microplate reader (SPECTRAmax PLUS384; Molecular Devices, San Jose, CA, USA). The highest dilution at the cutoff absorbance 0.2 were determined as the antibody titer.
This study was designed to monitor the kinetics of how quickly the antibody levels to MVF-PD-1(92-110) diminished after the dosing was stopped. […] We monitored the beagle dogs’ body weight closely during the immunization period ( Figure 3C ).

[2] = tested on: beagle dogs; assay: Antibody isotyping of sera of immunized beagle dogs; type: in vivo, dog; settings: dogs #1-#3
[3] = tested on: cynomolgus monkeys; assay: ELISA antibody titers, monkey study No.00213515; type: in vivo, Macaca fascicularis; settings: monkey 1st set, 0.5, 2, 5 mg/dose, 2-week interval, ISA 720
Procedure: The non-human primate studies were carried out by the Charles River Laboratories (Ashland, OH USA). All the cynomolgus monkeys (Macaca fascicularis of Chinese origin) were obtained from Charles River Laboratories (Houston, TX, USA). In brief, the animals were approximately 2–4 years old and at the body weight between 2.2 and 3.1 kg at the initial dosing. The animals were kept at the temperature between 19°C and 24°C, humidity 30%–70%, and with 12 h light and 12 h dark light cycle. The Good manufacturing practice (GMP)-manufactured vaccine was used in the non-human primate study. […] Similar to mouse and dog dosing preparation, after the emulsion was prepared, a drop test was performed on each time of dosing to confirm that the emulsion had been prepared properly. […] All the animals’ body weights were monitored weekly after receiving. […]
Enzyme-linked immunosorbent assay (ELISA) was performed per our lab standard procedure. […] After washing, the antibody was detected using 50 μl of 0.15% H2O2 in 24 mM of citric acid and 5 mM of the sodium phosphate buffer (pH5.2) with 0.5 mg/ml 2, […] (3-ethylbenzthiazole- 6-sulfonic acid, ABTS; Sigma, St. Louis, MO, USA) as the chromophore. […] Absorbance was read at 415 nm using an ELISA microplate reader (SPECTRAmax PLUS384; Molecular Devices, San Jose, CA, USA). The highest dilution at the cutoff absorbance 0.2 were determined as the antibody titer. […]

[4] = tested on: cynomolgus monkeys; assay: GLP repeat-dose toxicology, first monkey study No.00213515; type: in vivo, Macaca fascicularis
Procedure: The non-human primate studies were carried out by the Charles River Laboratories (Ashland, OH USA). All the cynomolgus monkeys (Macaca fascicularis of Chinese origin) were obtained from Charles River Laboratories (Houston, TX, USA). In brief, the animals were approximately 2–4 years old and at the body weight between 2.2 and 3.1 kg at the initial dosing. The animals were kept at the temperature between 19°C and 24°C, humidity 30%–70%, and with 12 h light and 12 h dark light cycle. The Good manufacturing practice (GMP)-manufactured vaccine was used in the non-human primate study. […] Similar to mouse and dog dosing preparation, after the emulsion was prepared, a drop test was performed on each time of dosing to confirm that the emulsion had been prepared properly. […] The dose volume was split approximately equally across two different sites; 0.5 ml of the dose was intramuscularly (IM) injected into the right posterior lateral thigh, the left dosing was injected into the left site. All the animals’ body weights were monitored weekly after receiving. After each immunization, the animal body temperature was tested 6 and 24 h post each immunization. […] The animal bleed were collected before each time of immunization to monitor the antibody titers. There were two sets of non-human primate studies conducted. The first set of monkey study No.00213515 had 24 monkeys, 12 males, and 12 females divided into 4 groups: vehicle control, low dose 0.5 mg, medium dose 2 mg, and high dose 5 mg. There were 16 monkeys (8 males and 8 females) in the second set of monkey study No. 00213519. The monkeys in the four groups were vaccinated as follows: vehicle control, low dose 25 μg, medium dose 100 μg, and high dose 250 μg.
In the non-human primate study (#00213515), 24 non-human primates, cynomolgus monkeys, were used. The monkeys were immunized four times (1Y, 2Y, 3Y, and 4Y at days 1, 15, 29, and 43, respectively). Sera were collected at day 1 (pre), day 43, and day 59 ( Figure 4A ). There were four groups and 6 monkeys in each group. Group 1 was the control group, which was treated with only ISA 720 and ddwater. Groups 2, 3, and 4 were peptide PD-1Vaxx treatment groups and were treated with low-dose 0.5 mg/dose, medium-dose […], or high-dose […] peptide vaccine, respectively ( Figure 4B ), emulsified in ISA 720.
These observations were first noted beginning after the second or third dose and were more frequent in female monkeys compared to male monkeys. • b) After the recovery period, all APi2568-related clinical observations had either recovered or were in the process of recovering, with the exception of swollen hind limbs.

Sequence: KLLSLIKGVIVHRLEGVEGPSLGAISLAPKAQIKESLRAEL [MVF-PD-1(92-110)]
- antibody titers in sera (words) [1]: high titer antibody
- antibody titers in sera (words) ([1]; listed as PD-1(92)): high immunogenicity
- antibody titers after dosing stopped and after re-challenge ([1]; beagle dogs, 4Y boost 6 months after primary immunization): dropped to very low levels in the absence of dosing but could be recovered if the dog was re-challenged with vaccine
- IgA isotype percentage [2]: less than 2%
- immunogenicity (summary) [3]: high immunogenicity
- no-observed-adverse-effect level (NOAEL) ([4]; 0.5, 2, 5 mg/dose IM as PD1-Vaxx, male and female cynomolgus monkeys): could not be determined
- clinical findings at or near the IM site of dose administration ([4]; 0.5, 2, and 5 mg/dose groups, first noted after second or third dose, more frequent in females): adverse swelling, ulceration, and/or abscess formation
- induction of autoimmune responses ([4]; cynomolgus monkeys): has not been observed
- safety (summary) ([4]; monkey 1st set): safe
